From patent publication US6930075B1, “Fatty acid-based herbicidal composition” (priority 1990, dated 2005)

Tests used:
Experiment in all cases: Greenhouse spray, phytotoxicity and mortality over time;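 as to Phyto (Phytotoxicity, 0–10 rating scale): 0 means no damage and 10 means plant death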;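 as to Phyto (phytotoxicity ratings, 0–10 rating scale): 0 means no damage and 10 means plant death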;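 as to Phyto = Phytotoxicity (0–10 rating scale): 0 means no damage and 10 means plant death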
Assay type in all cases: in vivo
[1] = test system: Radish Plants; conditions: for Mortality: plants died of 4;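 as to Phyto = Phytotoxicity (0–10 rating scale): 0 means no damage and 10 means plant death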
Method: (§1) Herbicidal treatments were applied using a spray chamber fitted with a TeeJet 8006E flat fan nozzle (available from Spraying Systems Co., Wheaton, Ill.), calibrated to spray at a volume of 60 gpa at 40 psi. Treatment solutions were freshly prepared for each experiment. […] M. et al, J. Wiley and Sons, 1975, pp. 119–120, 218.
(§2) In a greenhouse facility four plant species were grown in 5.5 cm square pots using a potting soil mix comprising peat, vermiculite, sand and 4-10-10 fertilizer. Water soluble 20-20-20 fertilizer was used as a supplement for the plants as required. The plant species used were corn, oats, radish and morningglory. The plants were selected for use based on uniformity and quality. The corn plants used were in the 3 to 4 leaf stage and two plants were present in each pot. The oats used were in the 2 to 4 leaf stage and four plants were present per pot. The radish plants used were in the 3 to 5 leaf stage and one plant was used per pot. The morningglory were in the 2 to 4 leaf stage with one plant per pot. After spraying with a herbicidal formulation, the pots were arranged in a randomized complete block design in sub-irrigated watering trays, and included a water-treated control treatment. Four replicates (pots) were used for each treatment.
(§3) Herbicidal treatments were applied and recorded as in Example 1.

[2] = test system: Oats;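 also: 0 means no damage and 10 means plant death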
Method: as §1, §2, §3

[3] = test system: Morningglory; conditions: for Mortality: plants died of 4
Method: as §1, §2, §3

[4] = test system: Corn; conditions: for Mortality: plants died of 8
Method: as §1, §2, §3

[5] = 9 Days after Treatment, listed as 0.1% C9 Na^+ Salt
[6] = 9 Days after Treatment, listed as 0.5% C9 Na^+ Salt
[7] = 9 Days after Treatment, listed as 1.0% C9 Na^+ Salt
[8] = 11 Days after Treatment, listed as 0.1% C9 Na^+ Salt
[9] = 11 Days after Treatment, listed as 0.5% C9 Na^+ Salt
[10] = 11 Days after Treatment, listed as 1.0% C9 Na^+ Salt
[11] = 16 Days after Treatment, listed as 0.1% C9 Na^+ Salt
[12] = 16 Days after Treatment, listed as 0.5% C9 Na^+ Salt
[13] = 16 Days after Treatment, listed as 1.0% C9 Na^+ Salt
[14] = 18 Days after Treatment, listed as 0.1% C9 Na^+ Salt
[15] = 18 Days after Treatment, listed as 0.5% C9 Na^+ Salt
[16] = 18 Days after Treatment, listed as 1.0% C9 Na^+ Salt
[17] = 21 Days after Treatment, listed as 0.1% C9 Na^+ Salt
[18] = 21 Days after Treatment, listed as 0.5% C9 Na^+ Salt
[19] = 21 Days after Treatment, listed as 1.0% C9 Na^+ Salt
[20] = 23 Days after Treatment, listed as 0.1% C9 Na^+ Salt
[21] = 23 Days after Treatment, listed as 0.5% C9 Na^+ Salt
[22] = 23 Days after Treatment, listed as 1.0% C9 Na^+ Salt

## CCCCCCCCC(=O)[O-].[Na+] [Sodium pelargonate]
[1]; 2 Days after Treatment
  Phyto = Phytotoxicity (0–10 rating scale): 0
  Mortality: 0
[1]; 4 Days after Treatment
  Phyto = Phytotoxicity (0–10 rating scale): 0
  Mortality: 0
[1]; 7 Days after Treatment, listed as 0.1% C9 Na^+ Salt
  Phyto = Phytotoxicity (0–10 rating scale): 0
[1]; 7 Days after Treatment, listed as 0.5% C9 Na^+ Salt
  Phyto = Phytotoxicity (0–10 rating scale): 0
[1]; 7 Days after Treatment, listed as 1.0% C9 Na^+ Salt
  Phyto = Phytotoxicity (0–10 rating scale): 0.5
[1]; 7 Days after Treatment
  Mortality: 0
[1]; [5]
  Phyto = Phytotoxicity (0–10 rating scale): 0
[1]; [6]
  Phyto = Phytotoxicity (0–10 rating scale): 0
[1]; [7]
  Phyto = Phytotoxicity (0–10 rating scale): 0.5
[1]; 9 Days after Treatment
  Mortality: 0
[1]; [8]
  Phyto = Phytotoxicity (0–10 rating scale): 0
[1]; [9]
  Phyto = Phytotoxicity (0–10 rating scale): 0
[1]; [10]
  Phyto = Phytotoxicity (0–10 rating scale): 0.5
[1]; 11 Days after Treatment
  Mortality: 0
[1]; [11]
  Phyto = Phytotoxicity (0–10 rating scale): 0
[1]; [12]
  Phyto = Phytotoxicity (0–10 rating scale): 0
[1]; [13]
  Phyto = Phytotoxicity (0–10 rating scale): 0.5
[1]; 16 Days after Treatment
  Mortality: 0
[1]; [14]
  Phyto = Phytotoxicity (0–10 rating scale): 0
[1]; [15]
  Phyto = Phytotoxicity (0–10 rating scale): 0
[1]; [16]
  Phyto = Phytotoxicity (0–10 rating scale): 0.5
[1]; 18 Days after Treatment
  Mortality: 0
[1]; [17]
  Phyto = Phytotoxicity (0–10 rating scale): 0
[1]; [18]
  Phyto = Phytotoxicity (0–10 rating scale): 0
[1]; [19]
  Phyto = Phytotoxicity (0–10 rating scale): 0.5
[1]; 21 Days after Treatment
  Mortality: 0
[1]; [20]
  Phyto = Phytotoxicity (0–10 rating scale): 0
[1]; [21]
  Phyto = Phytotoxicity (0–10 rating scale): 0
[1]; [22]
  Phyto = Phytotoxicity (0–10 rating scale): 0.5
[1]; 23 Days after Treatment
  Mortality: 0
[1]; 25 Days after Treatment, listed as 0.1% C9 Na^+ Salt
  Phyto = Phytotoxicity (0–10 rating scale): 0
[1]; 25 Days after Treatment, listed as 0.5% C9 Na^+ Salt
  Phyto = Phytotoxicity (0–10 rating scale): 0
[1]; 25 Days after Treatment, listed as 1.0% C9 Na^+ Salt
  Phyto = Phytotoxicity (0–10 rating scale): 0.5
[1]; 25 Days after Treatment
  Mortality: 0
[1]; 28 Days after Treatment, listed as 0.1% C9 Na^+ Salt
  Phyto = Phytotoxicity (0–10 rating scale): 0
[1]; 28 Days after Treatment, listed as 0.5% C9 Na^+ Salt
  Phyto = Phytotoxicity (0–10 rating scale): 0
[1]; 28 Days after Treatment, listed as 1.0% C9 Na^+ Salt
  Phyto = Phytotoxicity (0–10 rating scale): 0.5
[1]; 28 Days after Treatment
  Mortality: 0
[1]; 30 Days after Treatment, listed as 0.1% C9 Na^+ Salt
  Phyto = Phytotoxicity (0–10 rating scale): 0
[1]; 30 Days after Treatment, listed as 0.5% C9 Na^+ Salt
  Phyto = Phytotoxicity (0–10 rating scale): 0
[1]; 30 Days after Treatment, listed as 1.0% C9 Na^+ Salt
  Phyto = Phytotoxicity (0–10 rating scale): 0.5
[1]; 30 Days after Treatment
  Mortality: 0
[1]; 32 Days after Treatment, listed as 0.1% C9 Na^+ Salt
  Phyto = Phytotoxicity (0–10 rating scale): 0
[1]; 32 Days after Treatment, listed as 0.5% C9 Na^+ Salt
  Phyto = Phytotoxicity (0–10 rating scale): 0
[1]; 32 Days after Treatment, listed as 1.0% C9 Na^+ Salt
  Phyto = Phytotoxicity (0–10 rating scale): 0.5
[1]; 32 Days after Treatment
  Mortality: 0
[1]; 35 Days after Treatment, listed as 0.1% C9 Na^+ Salt
  Phyto = Phytotoxicity (0–10 rating scale): 0
[1]; 35 Days after Treatment, listed as 0.5% C9 Na^+ Salt
  Phyto = Phytotoxicity (0–10 rating scale): 0
[1]; 35 Days after Treatment, listed as 1.0% C9 Na^+ Salt
  Phyto = Phytotoxicity (0–10 rating scale): 0.5
[1]; 35 Days after Treatment
  Mortality: 0
[1]; 42 Days after Treatment, listed as 0.1% C9 Na^+ Salt
  Phyto = Phytotoxicity (0–10 rating scale): 0
[1]; 42 Days after Treatment, listed as 0.5% C9 Na^+ Salt
  Phyto = Phytotoxicity (0–10 rating scale): 0
[1]; 42 Days after Treatment, listed as 1.0% C9 Na^+ Salt
  Phyto = Phytotoxicity (0–10 rating scale): 0.5
[1]; 42 Days after Treatment
  Mortality: 0
[1]; 46 Days after Treatment, listed as 0.1% C9 Na^+ Salt
  Phyto = Phytotoxicity (0–10 rating scale): 0
[1]; 46 Days after Treatment, listed as 0.5% C9 Na^+ Salt
  Phyto = Phytotoxicity (0–10 rating scale): 0
[1]; 46 Days after Treatment, listed as 1.0% C9 Na^+ Salt
  Phyto = Phytotoxicity (0–10 rating scale): 0.5
[1]; 46 Days after Treatment
  Mortality: 0
[1]; 57 Days after Treatment, listed as 0.1% C9 Na^+ Salt
  Phyto = Phytotoxicity (0–10 rating scale): 0
[1]; 57 Days after Treatment, listed as 0.5% C9 Na^+ Salt
  Phyto = Phytotoxicity (0–10 rating scale): 0
[1]; 57 Days after Treatment, listed as 1.0% C9 Na^+ Salt
  Phyto = Phytotoxicity (0–10 rating scale): 0.5
[1]; 57 Days after Treatment
  Mortality: 0
[2]; 2 Days after Treatment
  Phyto (phytotoxicity ratings, 0–10 rating scale): 0
[2]; 4 Days after Treatment
  Phyto (phytotoxicity ratings, 0–10 rating scale): 0
[2]; 7 Days after Treatment
  Phyto (phytotoxicity ratings, 0–10 rating scale): 0
[2]; 9 Days after Treatment
  Phyto (phytotoxicity ratings, 0–10 rating scale): 0
[2]; 11 Days after Treatment
  Phyto (phytotoxicity ratings, 0–10 rating scale): 0
[2]; 16 Days after Treatment
  Phyto (phytotoxicity ratings, 0–10 rating scale): 0
[2]; 18 Days after Treatment
  Phyto (phytotoxicity ratings, 0–10 rating scale): 0
[2]; 21 Days after Treatment
  Phyto (phytotoxicity ratings, 0–10 rating scale): 0
[2]; 23 Days after Treatment
  Phyto (phytotoxicity ratings, 0–10 rating scale): 0
[2]; 25 Days after Treatment
  Phyto (phytotoxicity ratings, 0–10 rating scale): 0
[2]; 28 Days after Treatment
  Phyto (phytotoxicity ratings, 0–10 rating scale): 0
[2]; 30 Days after Treatment
  Phyto (phytotoxicity ratings, 0–10 rating scale): 0
[2]; 32 Days after Treatment
  Phyto (phytotoxicity ratings, 0–10 rating scale): 0
[2]; 35 Days after Treatment
  Phyto (phytotoxicity ratings, 0–10 rating scale): 0
[3]; 2 Days after Treatment
  Phyto (Phytotoxicity, 0–10 rating scale): 0
  Mortality: 0
[3]; 4 Days after Treatment
  Phyto (Phytotoxicity, 0–10 rating scale): 0
  Mortality: 0
[3]; 7 Days after Treatment
  Phyto (Phytotoxicity, 0–10 rating scale): 0
  Mortality: 0
[3]; 9 Days after Treatment
  Phyto (Phytotoxicity, 0–10 rating scale): 0
  Mortality: 0
[3]; 11 Days after Treatment
  Phyto (Phytotoxicity, 0–10 rating scale): 0
  Mortality: 0
[3]; 16 Days after Treatment
  Phyto (Phytotoxicity, 0–10 rating scale): 0
  Mortality: 0
[3]; 18 Days after Treatment
  Phyto (Phytotoxicity, 0–10 rating scale): 0
  Mortality: 0
[3]; 21 Days after Treatment
  Phyto (Phytotoxicity, 0–10 rating scale): 0
  Mortality: 0
[3]; 23 Days after Treatment
  Phyto (Phytotoxicity, 0–10 rating scale): 0
  Mortality: 0
[3]; 25 Days after Treatment
  Phyto (Phytotoxicity, 0–10 rating scale): 0
  Mortality: 0
[3]; 28 Days after Treatment
  Phyto (Phytotoxicity, 0–10 rating scale): 0
  Mortality: 0
[3]; 30 Days after Treatment
  Phyto (Phytotoxicity, 0–10 rating scale): 0
  Mortality: 0
[3]; 32 Days after Treatment
  Phyto (Phytotoxicity, 0–10 rating scale): 0
  Mortality: 0
[3]; 35 Days after Treatment
  Phyto (Phytotoxicity, 0–10 rating scale): 0
  Mortality: 0
[4]; 2 Days after Treatment
  Phyto (Phytotoxicity, 0–10 rating scale): 0
  Mortality: 0
[4]; 4 Days after Treatment
  Phyto (Phytotoxicity, 0–10 rating scale): 0
  Mortality: 0
[4]; 7 Days after Treatment
  Phyto (Phytotoxicity, 0–10 rating scale): 0
  Mortality: 0
[4]; [5]
  Phyto (Phytotoxicity, 0–10 rating scale): 0
[4]; [6]
  Phyto (Phytotoxicity, 0–10 rating scale): 0.5
[4]; [7]
  Phyto (Phytotoxicity, 0–10 rating scale): 0
[4]; 9 Days after Treatment
  Mortality: 0
[4]; [8]
  Phyto (Phytotoxicity, 0–10 rating scale): 0
[4]; [9]
  Phyto (Phytotoxicity, 0–10 rating scale): 0.5
[4]; [10]
  Phyto (Phytotoxicity, 0–10 rating scale): 0
[4]; 11 Days after Treatment
  Mortality: 0
[4]; [11]
  Phyto (Phytotoxicity, 0–10 rating scale): 0.25
[4]; [12]
  Phyto (Phytotoxicity, 0–10 rating scale): 1.0
[4]; [13]
  Phyto (Phytotoxicity, 0–10 rating scale): 0.25
[4]; 16 Days after Treatment
  Mortality: 0
[4]; [14]
  Phyto (Phytotoxicity, 0–10 rating scale): 1.0
[4]; [15]
  Phyto (Phytotoxicity, 0–10 rating scale): 1.0
[4]; [16]
  Phyto (Phytotoxicity, 0–10 rating scale): 0.25
[4]; 18 Days after Treatment
  Mortality: 0
[4]; [17]
  Phyto (Phytotoxicity, 0–10 rating scale): 1.0
[4]; [18]
  Phyto (Phytotoxicity, 0–10 rating scale): 1.0
[4]; [19]
  Phyto (Phytotoxicity, 0–10 rating scale): 0.5
[4]; 21 Days after Treatment
  Mortality: 0
[4]; [20]
  Phyto (Phytotoxicity, 0–10 rating scale): 1.0
[4]; [21]
  Phyto (Phytotoxicity, 0–10 rating scale): 1.0
[4]; [22]
  Phyto (Phytotoxicity, 0–10 rating scale): 0.75
[4]; 23 Days after Treatment
  Mortality: 0
[4]; 25 Days after Treatment
  Phyto (Phytotoxicity, 0–10 rating scale): 1.0
  Mortality: 0
[4]; 28 Days after Treatment
  Phyto (Phytotoxicity, 0–10 rating scale): 0
  Mortality: 0
[4]; 30 Days after Treatment
  Phyto (Phytotoxicity, 0–10 rating scale): 0
  Mortality: 0
[4]; 32 Days after Treatment
  Phyto (Phytotoxicity, 0–10 rating scale): 0
  Mortality: 0
[4]; 35 Days after Treatment
  Phyto (Phytotoxicity, 0–10 rating scale): 0
  Mortality: 0
[4]; 42 Days after Treatment
  Phyto (Phytotoxicity, 0–10 rating scale): 0
  Mortality: 0
[4]; 46 Days after Treatment
  Phyto (Phytotoxicity, 0–10 rating scale): 0
  Mortality: 0
[4]; 57 Days after Treatment
  Phyto (Phytotoxicity, 0–10 rating scale): 0
  Mortality: 0
